Assay results from US20230114241A1, “METHODS OF TREATING EPILEPSY USING THE SAME” (Trevena, Inc., priority 2019, published 2023).

Experiments:
[1] = biological target: T1, human sphingosine-1-phosphate receptor 1 (S1P1) (Homo sapiens, UniProt P21453); assay: β-Arrestin2 recruitment assay (PathHunter), S1P1 CHO-K1 cells; format: cell-based
In short: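 Agonist-driven β-arrestin2 recruitment measured by β-galactosidase complementation after 60 min compound exposure at 37 °C and 1 h detection at room temperature. Cells: stable CHO-K1 line expressing tagged human S1P1 with EA-β-arrestin2, plated the night before. Data expressed relative to fingolimod.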
Target sequence in this assay (P21453 whole entry): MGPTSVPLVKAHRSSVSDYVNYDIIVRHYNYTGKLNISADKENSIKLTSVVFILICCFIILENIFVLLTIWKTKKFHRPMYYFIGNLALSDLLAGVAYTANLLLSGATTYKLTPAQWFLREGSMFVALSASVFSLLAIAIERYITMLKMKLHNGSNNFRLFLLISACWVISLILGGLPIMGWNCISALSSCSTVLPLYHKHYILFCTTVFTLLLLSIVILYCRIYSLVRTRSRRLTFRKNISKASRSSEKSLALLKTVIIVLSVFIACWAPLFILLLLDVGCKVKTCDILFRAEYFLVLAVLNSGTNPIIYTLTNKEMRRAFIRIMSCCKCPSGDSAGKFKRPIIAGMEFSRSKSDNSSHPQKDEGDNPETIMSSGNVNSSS
Target sequence in this assay (P32121 whole entry partner): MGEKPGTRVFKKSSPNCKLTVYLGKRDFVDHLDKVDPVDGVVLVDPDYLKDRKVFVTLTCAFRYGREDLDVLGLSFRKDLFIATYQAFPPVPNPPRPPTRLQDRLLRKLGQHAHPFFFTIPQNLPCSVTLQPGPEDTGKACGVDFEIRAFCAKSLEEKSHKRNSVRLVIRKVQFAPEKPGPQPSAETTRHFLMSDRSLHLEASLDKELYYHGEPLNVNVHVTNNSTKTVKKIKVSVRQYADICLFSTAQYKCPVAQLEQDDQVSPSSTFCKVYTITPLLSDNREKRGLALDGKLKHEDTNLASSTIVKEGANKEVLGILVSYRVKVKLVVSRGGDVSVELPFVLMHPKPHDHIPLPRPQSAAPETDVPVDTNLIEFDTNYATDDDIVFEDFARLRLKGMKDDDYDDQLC

[2] = biological target: T1, human sphingosine-1-phosphate receptor 1 (S1P1); assay: Inhibition of cAMP production (HTRF cAMP HiRange), S1P1 CHO-K1 cells; format: cell-based
In short: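 Intracellular cAMP changes read by TR-FRET (HTRF HiRange, 1 h room temperature) after 30 min compound exposure at 37 °C. Cells: overnight-plated CHO-K1 stably expressing tagged human S1P1 with EA-β-arrestin2. Responses normalized to fingolimod.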
Target sequence in this assay (P21453 whole entry): as the sequence (P21453 whole entry) above

[3] = CHO-K1, efficacy normalized to maximum efficacy of fingolimod, read-out: hS1P1 B-arrestin2 SPAN
[4] = β-arrestin2 recruitment, S1P1, read-out: hS1P1 B-arrestin2 pEC50 (converted)
[5] = CHO-K1, efficacy normalized to maximum efficacy of fingolimod, read-out: hS1P1 CAMP SPAN
[6] = inhibition of cAMP production, S1P1, read-out: hS1P1 CAMP pEC50 (converted)
[7] = CHO-K1, β-arrestin2 recruitment, efficacy normalized to maximum efficacy of fingolimod, read-out: hS1P1 B-arrestin2 SPAN
[8] = β-arrestin2 recruitment, potency, read-out: hS1P1 B-arrestin2 pEC50 (converted)
[9] = CHO-K1, inhibition of cAMP production, efficacy normalized to maximum efficacy of fingolimod, read-out: hS1P1 CAMP SPAN
[10] = inhibition of cAMP production, potency, read-out: hS1P1 CAMP pEC50 (converted)

SMILES	Emax [1, 3]	EC50 [1, 4]	Emax [2, 5]	EC50 [2, 6]	also measured
FC(F)(F)Oc1cccc(-c2nc(-c3ccc4c(c3)nnn4C3CCCC3)no2)c1 [Compound 10, 3-(1-cyclopentyl-1H-benzo[d][1,2,3]triazol-5-yl)-5-(3-(trifluoro-methoxy)phenyl)-1,2,4-oxadiazole]	–	–	–	–	EC50 [1]: > 10 µM; Emax ([1]; CHO-K1, read-out: hS1P1 B-arrestin2 SPAN): < 75%; EC50 [2]: > 0.316 µM; Emax ([2]; CHO-K1, read-out: hS1P1 CAMP SPAN): < 75%
CCC1(CC)CC(=O)c2cc(-c3ncc(-c4ccnc(O)c4)cn3)ccc2O1 [Compound 552, 2,2-diethyl-6-(5-(2-hydroxypyridin-4-yl)pyrimidin-2-yl)chroman-4-one]	< 75%	> 10 µM	< 75%	> 0.316 µM	–
CC(C)n1nnc2cc(-c3noc(-c4ccccc4C(F)(F)F)n3)ccc21 [Compound 33, 3-(1-isopropyl-benzotriazol-5-yl)-5-[2-(trifluoromethyl)phenyl]-1,2,4-oxadiazole]	–	–	–	–	Emax [1, 7]: > 75%; EC50 [1, 8]: < 10 µM; Emax [2, 9]: > 75%; EC50 [2, 10]: < 0.316 µM
CCC1(CC)CC(=O)c2cc(-c3nc(-c4cccnc4C)no3)ccc2O1 [Compound 564, 2,2-diethyl-6-(3-(2-methylpyridin-3-yl)-1,2,4-oxadiazol-5-yl)chroman-4-one]	> 75%	< 10 µM	> 75%	< 0.316 µM	–
O=C1CCc2cc(-c3nc(-c4cccnc4)no3)ccc2N1 [Compound 386, 6-[3-(pyridin-3-yl)-1,2,4-oxadiazol-5-yl]-1,2,3,4-tetrahydro-quinolin-2-one]	< 75%	> 10 µM	> 75%	> 0.316 µM	–
COc1ccccc1-c1noc(-c2ccc3c(c2)ncn3C(C)C)n1 [Compound 373, 5-(1-isopropyl-1H-benzo[d]imidazol-5-yl)-3-(2-methoxy-phenyl)-1,2,4-oxadiazole]	> 75%	> 10 µM	> 75%	> 0.316 µM	–
CCC1(CC)CC(=O)c2cc(-c3nc(-c4cncc(C(N)=O)c4)no3)ccc2O1 [Compound 537, 5-(5-(2,2-diethyl-4-oxochroman-6-yl)-1,2,4-oxadiazol-3-yl)nicotinamide]	< 75%	< 10 µM	> 75%	< 0.316 µM	–
COc1ncccc1-c1noc(-c2ccc3c(c2)nnn3C(C)C)n1 [Compound 619, 5-(1-isopropyl-1H-benzo[d][1,2,3]triazol-5-yl)-3-(2-methoxy-pyridin-3-yl)-1,2,4-oxadiazole]	> 75%	< 10 µM	> 75%	< 0.316 µM	–
CCC1(CC)CC(=O)c2cc(-c3nc(-c4ccnc(NC(C)=O)c4)no3)ccc2O1 [Compound 512, N-(4-(5-(2,2-diethyl-4-oxochroman-6-yl)-1,2,4-oxadiazol-3-yl)pyridin-2-yl)acetamide]	< 75%	< 10 µM	> 75%	< 0.316 µM	–
CC(C)(O)Cn1nnc2cc(-c3nc(-c4ccc5nonc5c4)no3)ccc21 [Compound 590, 1-{5-[3-(2,1,3-benzoxa-diazol-5-yl)-1,2,4-oxadiazol-5-yl]-1H-1,2,3-benzotriazol-1-yl}-2-methylpropan-2-ol]	< 75%	> 10 µM	< 75%	> 0.316 µM	–
Cc1cnc(-c2noc(-c3ccc4c(c3)nnn4C(C)C)n2)cn1 [Compound 157, 5-[3-(5-methylpyrazin-2-yl)-1,2,4-oxadiazol-5-yl]-1-(propan-2-yl)-1H-1,2,3-benzotriazole]	–	–	–	–	Emax [1, 7]: < 75%; EC50 [1, 8]: > 10 µM; Emax [2, 9]: < 75%; EC50 [2, 10]: > 0.316 µM
Cc1ccccc1-c1noc(-c2ccc3c(c2)CCC(=O)N3C)n1 [Compound 367, 1-methyl-6-[3-(2-methyl-phenyl)-1,2,4-oxadiazol-5-yl]-1,2,3,4-tetrahydroquinolin-2-one]	–	–	–	–	Emax [1, 7]: < 75%; EC50 [1, 8]: > 10 µM; Emax [2, 9]: < 75%; EC50 [2, 10]: > 0.316 µM
